# Test results: ChEMBL document CHEMBL1127612, “Maleimidoethyl 3-(tri-n-butylstannyl)hippurate: a useful radioiodination reagent for protein radiopharmaceuticals to enhance target selective radioactivity localization” (J Med Chem, 1994)
# What was measured:
# Mus musculus [1] = assay: Tested for biodistribution of radioactivity after 1 hr of intravenous injection in mice blood; type: ADME, organism-based; settings: in vivo
# Mus musculus [2] = assay: Tested for biodistribution of radioactivity after 30 min of intravenous injection in mice blood; type: ADME, organism-based; settings: in vivo, 0.5 h
# Mus musculus [3] = assay: Tested for biodistribution of radioactivity after 3h of intravenous injection in mice blood; type: ADME, organism-based; settings: in vivo
# Mus musculus [4] = assay: Tested for biodistribution of radioactivity after 6 hr of intravenous injection in mice blood; type: ADME, organism-based; settings: in vivo
# Mus musculus [5] = assay: Tested for biodistribution of radioactivity after 5 min of intravenous injection in mice liver; type: ADME, organism-based; settings: in vivo
# Mus musculus [6] = assay: Tested for biodistribution of radioactivity after 5 min of intravenous injection in mice neck; type: ADME, organism-based; settings: in vivo
# Mus musculus [7] = assay: Tested for biodistribution of radioactivity after 5 min of intravenous injection in mice spleen; type: ADME, organism-based; settings: in vivo
# Mus musculus [8] = assay: Tested for biodistribution of radioactivity after 5 min of intravenous injection in mice stomach; type: ADME, organism-based; settings: in vivo
# Mus musculus [9] = assay: Tested for biodistribution of radioactivity after 5 min of intravenous injection in mice kidneys; type: ADME, organism-based; settings: in vivo
# Mus musculus [10] = assay: Tested for biodistribution of radioactivity after 6 hr of intravenous injection in mice feces; type: ADME, organism-based; settings: in vivo
# Mus musculus [11] = assay: Tested for biodistribution of radioactivity after 6 hr of intravenous injection in mice intestines; type: ADME, organism-based, Intestine; settings: in vivo
# Mus musculus [12] = assay: Tested for biodistribution of radioactivity after 6 hr of intravenous injection in mice kidneys; type: ADME, organism-based, Kidney; settings: in vivo
# Mus musculus [13] = assay: Tested for biodistribution of radioactivity after 6 hr of intravenous injection in mice liver; type: ADME, organism-based; settings: in vivo
# Mus musculus [14] = assay: Tested for biodistribution of radioactivity after 6 hr of intravenous injection in mice neck; type: ADME, organism-based; settings: in vivo
# Mus musculus [15] = assay: Tested for biodistribution of radioactivity after 30 min of intravenous injection in mice neck; type: ADME, organism-based; settings: in vivo, 0.5 h
# Mus musculus [16] = assay: Tested for biodistribution of radioactivity after 30 min of intravenous injection in mice spleen; type: ADME, organism-based; settings: in vivo, 0.5 h
# Mus musculus [17] = assay: Tested for biodistribution of radioactivity after 30 min of intravenous injection in mice stomach; type: ADME, organism-based; settings: in vivo, 0.5 h
# Mus musculus [18] = assay: Tested for biodistribution of radioactivity after 3h of intravenous injection in mice intestines; type: ADME, organism-based, Intestine; settings: in vivo
# Mus musculus [19] = assay: Tested for biodistribution of radioactivity after 3h of intravenous injection in mice kidneys; type: ADME, organism-based, Kidney; settings: in vivo
# Mus musculus [20] = assay: Tested for biodistribution of radioactivity after 3h of intravenous injection in mice neck; type: ADME, organism-based; settings: in vivo
# Mus musculus [21] = assay: Tested for biodistribution of radioactivity after 3h of intravenous injection in mice spleen; type: ADME, organism-based; settings: in vivo
# Mus musculus [22] = assay: Tested for biodistribution of radioactivity after 3h of intravenous injection in mice stomach; type: ADME, organism-based; settings: in vivo
# Mus musculus [23] = assay: Tested for biodistribution of radioactivity after 1 hr of intravenous injection in mice intestines; type: ADME, organism-based, Intestine; settings: in vivo
# Mus musculus [24] = assay: Tested for biodistribution of radioactivity after 1 hr of intravenous injection in mice liver; type: ADME, organism-based; settings: in vivo
# Mus musculus [25] = assay: Tested for biodistribution of radioactivity after 6 hr of intravenous injection in mice spleen; type: ADME, organism-based; settings: in vivo
# Mus musculus [26] = assay: Tested for biodistribution of radioactivity after 6 hr of intravenous injection in mice stomach; type: ADME, organism-based; settings: in vivo
# Mus musculus [27] = assay: Tested for biodistribution of radioactivity after 6 hr of intravenous injection in mice urine; type: ADME, organism-based; settings: in vivo
# Mus musculus [28] = assay: Tested for biodistribution of radioactivity after 1 hr of intravenous injection in mice neck; type: ADME, organism-based; settings: in vivo
# Mus musculus [29] = assay: Tested for biodistribution of radioactivity after 1 hr of intravenous injection in mice spleen; type: ADME, organism-based; settings: in vivo
# Mus musculus [30] = assay: Tested for biodistribution of radioactivity after 1 hr of intravenous injection in mice stomach; type: ADME, organism-based; settings: in vivo
# Mus musculus [31] = assay: Tested for biodistribution of radioactivity after 24 hr of intravenous injection in mice feces; type: ADME, organism-based; settings: in vivo
# Mus musculus [32] = assay: Tested for biodistribution of radioactivity after 24 hr of intravenous injection in mice intestines; type: ADME, organism-based, Intestine; settings: in vivo
# Mus musculus [33] = assay: Tested for biodistribution of radioactivity after 24 hr of intravenous injection in mice kidneys; type: ADME, organism-based, Kidney; settings: in vivo
# Mus musculus [34] = assay: Tested for biodistribution of radioactivity after 24 hr of intravenous injection in mice liver; type: ADME, organism-based; settings: in vivo
# Mus musculus [35] = assay: Tested for biodistribution of radioactivity after 24 hr of intravenous injection in mice neck; type: ADME, organism-based; settings: in vivo
# Mus musculus [36] = assay: Tested for biodistribution of radioactivity after 24 hr of intravenous injection in mice spleen; type: ADME, organism-based; settings: in vivo
# Mus musculus [37] = assay: Tested for biodistribution of radioactivity after 24 hr of intravenous injection in mice stomach; type: ADME, organism-based; settings: in vivo
# Mus musculus [38] = assay: Tested for biodistribution of radioactivity after 30 min of intravenous injection in mice kidneys; type: ADME, organism-based; settings: in vivo, 0.5 h
# Mus musculus [39] = assay: Tested for biodistribution of radioactivity after 30 min of intravenous injection in mice lintestines; type: ADME, organism-based, Intestine; settings: in vivo, 0.5 h
# Mus musculus [40] = assay: Tested for biodistribution of radioactivity after 30 min of intravenous injection in mice liver; type: ADME, organism-based; settings: in vivo, 0.5 h
# Mus musculus [41] = assay: Tested for biodistribution of radioactivity after 3h of intravenous injection in mice liver; type: ADME, organism-based; settings: in vivo
# Mus musculus [42] = assay: Tested for biodistribution of radioactivity after 1 hr of intravenous injection in mice kidneys; type: ADME, organism-based, Kidney; settings: in vivo
# Mus musculus [43] = assay: Tested for biodistribution of radioactivity after 24 hr of intravenous injection in mice urine; type: ADME, organism-based; settings: in vivo
# Mus musculus [44] = assay: Tested for biodistribution of radioactivity after 24 hr of intravenous injection in mice blood; type: ADME, organism-based; settings: in vivo
# Mus musculus [45] = assay: Tested for biodistribution of radioactivity after 5 min of intravenous injection in mice blood; type: ADME, organism-based; settings: in vivo
# Mus musculus [46] = assay: Tested for biodistribution of radioactivity after 5 min of intravenous injection in mice intestines; type: ADME, organism-based, Intestine; settings: in vivo
compound,measurement,setting,value
CN[C@@H](CCCCN)C(=O)NC(=O)c1cccc(I)c1,Dose/g,Mus musculus [1],0.28%
same,Dose/g,Mus musculus [2],1.16%
same,Dose/g,Mus musculus [3],0.11%
same,Dose/g,Mus musculus [4],0.04%
same,Dose/organ,Mus musculus [5],92.86%
same,Dose/organ,Mus musculus [6],0.16%
same,Dose/organ,Mus musculus [7],0.02%
same,Dose/organ,Mus musculus [8],0.16%
same,Dose/organ,Mus musculus [9],0.8%
same,Dose/organ,Mus musculus [10],1.53%
same,Dose/organ,Mus musculus [11],1.83%
same,Dose/organ,Mus musculus [12],0.31%
same,Dose/organ,Mus musculus [13],2.82%
same,Dose/organ,Mus musculus [14],0.01%
same,Dose/organ,Mus musculus [15],0.14%
same,Dose/organ,Mus musculus [16],0.07%
same,Dose/organ,Mus musculus [17],0.65%
same,Dose/organ,Mus musculus [18],6.42%
same,Dose/organ,Mus musculus [19],0.7%
same,Dose/organ,Mus musculus [20],0.02%
same,Dose/organ,Mus musculus [21],0.01%
same,Dose/organ,Mus musculus [22],0.36%
same,Dose/organ,Mus musculus [23],10.73%
same,Dose/organ,Mus musculus [24],6.96%
same,Dose/organ,Mus musculus [25],0.02%
same,Dose/organ,Mus musculus [26],0.32%
same,Dose/organ,Mus musculus [27],63.2%
same,Dose/organ,Mus musculus [28],0.03%
same,Dose/organ,Mus musculus [29],0.09%
same,Dose/organ,Mus musculus [30],0.43%
same,Dose/organ,Mus musculus [31],3.26%
same,Dose/organ,Mus musculus [32],0.07%
same,Dose/organ,Mus musculus [33],0.02%
same,Dose/organ,Mus musculus [34],0.18%
same,Dose/organ,Mus musculus [35],0.01%
same,Dose/organ,Mus musculus [36],0.02%
same,Dose/organ,Mus musculus [37],0.04%
same,Dose/organ,Mus musculus [38],6.42%
same,Dose/organ,Mus musculus [39],9.45%
same,Dose/organ,Mus musculus [40],21.18%
same,Dose/organ,Mus musculus [41],4.18%
same,Dose/organ,Mus musculus [42],1.71%
same,Dose/organ,Mus musculus [43],83.9%
same,Dose/organ,Mus musculus [44],0.01%
same,Dose/g,Mus musculus [45],0.95%
same,Dose/organ,Mus musculus [46],0.41%
CCc1ccc(O)c(I)c1,Dose/g,Mus musculus [1],5.14%
same,Dose/g,Mus musculus [2],5.35%
same,Dose/g,Mus musculus [3],1.4%
same,Dose/g,Mus musculus [4],1.59%
same,Dose/organ,Mus musculus [5],92.49%
same,Dose/organ,Mus musculus [6],0.04%
same,Dose/organ,Mus musculus [7],0.06%
same,Dose/organ,Mus musculus [8],0.25%
same,Dose/organ,Mus musculus [9],0.01%
same,Dose/organ,Mus musculus [10],0.31%
same,Dose/organ,Mus musculus [11],3.06%
same,Dose/organ,Mus musculus [12],0.57%
same,Dose/organ,Mus musculus [13],1.13%
same,Dose/organ,Mus musculus [14],0.21%
same,Dose/organ,Mus musculus [15],0.7%
same,Dose/organ,Mus musculus [16],0.3%
same,Dose/organ,Mus musculus [17],15.65%
same,Dose/organ,Mus musculus [18],3.43%
same,Dose/organ,Mus musculus [19],0.83%
same,Dose/organ,Mus musculus [20],0.25%
same,Dose/organ,Mus musculus [21],0.1%
same,Dose/organ,Mus musculus [22],17.5%
same,Dose/organ,Mus musculus [23],6.73%
same,Dose/organ,Mus musculus [24],3.68%
same,Dose/organ,Mus musculus [25],0.06%
same,Dose/organ,Mus musculus [26],13.22%
same,Dose/organ,Mus musculus [27],26.84%
same,Dose/organ,Mus musculus [28],0.34%
same,Dose/organ,Mus musculus [29],0.23%
same,Dose/organ,Mus musculus [30],25.55%
same,Dose/organ,Mus musculus [31],3.22%
same,Dose/organ,Mus musculus [32],0.21%
same,Dose/organ,Mus musculus [33],0.04%
same,Dose/organ,Mus musculus [34],0.37%
same,Dose/organ,Mus musculus [35],0.01%
same,Dose/organ,Mus musculus [36],0.02%
same,Dose/organ,Mus musculus [37],0.11%
same,Dose/organ,Mus musculus [38],2.07%
same,Dose/organ,Mus musculus [39],8.28%
same,Dose/organ,Mus musculus [40],18.72%
same,Dose/organ,Mus musculus [41],1.44%
same,Dose/organ,Mus musculus [42],1.73%
same,Dose/organ,Mus musculus [43],79.66%
same,Dose/g,Mus musculus [44],0.12%
same,Dose/g,Mus musculus [45],0.15%
same,Dose/organ,Mus musculus [46],0.16%
